What was measured:
[1] = tested on: HCV replicon in human hepatoma Huh-7 cell line; test: Anti-HCV replicon assay (EC50, luciferase); assay type: cell-based; conditions: Hepatitis C virus, Huh-7, 72 h
Summary of the method: (§1)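 Huh-7 cells carrying an HCV replicon (6000/well) exposed to 3-fold serial compound dilutions for 3 days at 37 °C, final DMSO 0.5% where used. EC50 read as replicon luciferase luminescence after cell lysis; CC50 from CellTiter-Glo luminescence after 10 min at room temperature.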

[2] = CC50 assay (CellTiter-Glo) in Huh-7 HCV replicon cells; assay type: cell-based, human; conditions: human, 3 days incubation, CellTiter-Glo readout
Summary of the method: as §1

## CS(=O)(=O)CCNc1nc(NCc2ccc(S(N)(=O)=O)cc2)nc2ccc(-c3ccc(NC(=O)C4(O)CC4)cc3)nc12 [Example 155, 4-{[4-(2-Methanesulfonylethyl)-amino-6-(4-((1-hydroxy-1-cyclopropyl)-carboxamido)-phenyl)-pyrido[3,2-d]pyrimidin-2-ylamino]-methyl}-benzenesulfonamide]
[1]
  EC50: 0.1 to 0.25 µM
[2]
  CC50 at 3 days: > 25 µM

## N[C@@H](CO)C(=O)Nc1ccc(-c2ccc3nc(NCc4ccc(S(N)(=O)=O)cc4)nc(NCC(F)(F)F)c3n2)cc1 [Example 156, (S)-4-{[4-(2,2,2-Trifluoroethyl)-amino-6-(4-((2-hydroxy-1-aminoethyl)-carboxamido)-phenyl)-pyrido[3,2-d]pyrimidin-2-ylamino]-methyl}-benzenesulfonamide]
[1]
  EC50: < 0.1 µM
[2]
  CC50 at 3 days: < 5 µM

## CS(=O)(=O)N(CCO)c1cccc(-c2ccc3nc(NCc4ccc(S(N)(=O)=O)cc4)nc(NCC(F)F)c3n2)c1 [Example 157, 4-{[4-(2,2-Difluoroethyl)-amino-6-(4-(3-(N-2-hydroxyethyl)methane-sulfonamido)-phenyl)-pyrido[3,2-d]pyrimidin-2-ylamino]-methyl}-benzenesulfonamide]
[1]
  EC50: < 0.1 µM
[2]
  CC50 at 3 days: > 25 µM

## NS(=O)(=O)c1ccc(CNc2nc(NCC(F)(F)F)c3nc(-c4ccc(C(=O)NC5CC5)cc4)ccc3n2)cc1 [Example 158, 4-{[4-(2,2,2-Trifluoroethyl)-amino-6-(4-(N-cyclopropylcarbamoyl)-phenyl)-pyrido[3,2-d]pyrimidin-2-ylamino]-methyl}-benzenesulfonamide]
[1]
  EC50: < 0.1 µM
[2]
  CC50 at 3 days: 5 to 25 µM

## N#CC1(NC(=O)c2ccc(-c3ccc4nc(NCc5ccc(S(N)(=O)=O)cc5)nc(NCC(F)(F)F)c4n3)cc2)CC1 [Example 159, 4-{[4-(2,2,2-Trifluoroethyl)-amino-6-(4-(N-(1-cyano-1-cyclopropyl)-carbamoyl)phenyl)-pyrido[3,2-d]pyrimidin-2-ylamino]-methyl}-benzenesulfonamide]
[1]
  EC50: < 0.1 µM
[2]
  CC50 at 3 days: > 25 µM

## NC(=O)c1ccc(-c2ccc3nc(NCc4ccc(S(N)(=O)=O)cc4)nc(NCC(F)(F)F)c3n2)cc1 [Example 160]
[1]
  EC50: < 0.1 µM
[2]
  CC50 at 3 days: 5 to 25 µM

## CS(=O)(=O)N(CCO)c1cccc(-c2ccc3nc(NCc4ccc(S(N)(=O)=O)cc4)nc(NCC(F)(F)F)c3n2)c1 [Example 161, 4-{[4-(2,2,2-Trifluoroethyl)-amino-6-(4-(3-(N-2-hydroxyethyl)methane-sulfonamido)-phenyl)-pyrido[3,2-d]pyrimidin-2-ylamino]-methyl}-benzenesulfonamide]
[1]
  EC50: < 0.1 µM
[2]
  CC50 at 3 days: > 25 µM

## CS(=O)(=O)CCNc1nc(NCc2ccc(S(N)(=O)=O)cc2)nc2ccc(-c3ccc(C(=O)NC4CC4)cc3)nc12 [Example 162, 4-{[4-(2-Methanesulfonylethyl)-amino-6-(4-(N-cyclopropylcarbamoyl)-phenyl)-pyrido[3,2-d]pyrimidin-2-ylamino]-methyl}-benzenesulfonamide]
[1]
  EC50: 0.1 to 0.25 µM
[2]
  CC50 at 3 days: > 25 µM

## CS(=O)(=O)CCNc1nc(NCc2ccc(S(N)(=O)=O)cc2)nc2ccc(-c3ccc(F)c(NS(=O)(=O)C4CC4)c3)nc12 [Example 164, 4-{[4-(2-Methanesulfonylethyl)-amino-6-(4-(3-cyclopropanesulfonamido-4-fluoro)-phenyl)-pyrido[3,2-d]pyrimidin-2-ylamino]-methyl}-benzenesulfonamide]
[1]
  EC50: 0.1 to 0.25 µM
[2]
  CC50 at 3 days: > 25 µM

## Cc1noc(C)c1-c1ccc2nc(NCc3ccc(S(N)(=O)=O)cc3)nc(NCC(F)(F)F)c2n1 [Example 165, 4-{[6-(3,5-Dimethyl-isoxazol-4-yl)-4-(2,2,2-trifluoro-ethylamino)-pyrido[3,2-d]pyrimidin-2-ylamino]-methyl}-benzenesulfonamide]
[1]
  EC50: < 0.1 µM
[2]
  CC50 at 3 days: < 5 µM

## Cn1cc(-c2ccc3nc(NCc4ccc(S(N)(=O)=O)cc4)nc(NCC(F)(F)F)c3n2)cn1 [Example 166, 4-{[6-(1-Methyl-1H-pyrazol-4-yl)-4-(2,2,2-trifluoro-ethylamino)-pyrido[3,2-d]pyrimidin-2-ylamino]-methyl}-benzenesulfonamide]
[1]
  EC50: < 0.1 µM
[2]
  CC50 at 3 days: > 25 µM

## NS(=O)(=O)c1ccc(CNc2nc(NCC(F)(F)F)c3nc(-c4cnc(N5CCCC5)cn4)ccc3n2)cc1 [Example 167, 4-{[6-(5-Pyrrolidin-1-yl-pyrazin-2-yl)-4-(2,2,2-trifluoro-ethylamino)-pyrido[3,2-d]pyrimidin-2-ylamino]-methyl}-benzenesulfonamide]
[1]
  EC50: < 0.1 µM
[2]
  CC50 at 3 days: < 5 µM

## NS(=O)(=O)c1ccc(CNc2nc(NCC(F)(F)F)c3nc(-c4ccnc(C(F)(F)F)c4)ccc3n2)cc1 [Example 168, 4-{[4-(2,2,2-Trifluoro-ethylamino)-6-(2-trifluoromethyl-pyridin-4-yl)-pyrido[3,2-d]pyrimidin-2-ylamino]-methyl}-benzenesulfonamide]
[1]
  EC50: < 0.1 µM
[2]
  CC50 at 3 days: > 25 µM

## Nc1cc(-c2ccc3nc(NCc4ccc(S(N)(=O)=O)cc4)nc(NCC(F)(F)F)c3n2)ccn1 [Example 169, 4-{[6-(2-Amino-pyridin-4-yl)-4-(2,2,2-trifluoro-ethylamino)-pyrido[3,2-d]pyrimidin-2-ylamino]-methyl}-benzenesulfonamide]
[1]
  EC50: < 0.1 µM
[2]
  CC50 at 3 days: > 25 µM

## NS(=O)(=O)c1ccc(CNc2nc(NCC(F)(F)F)c3nc(-c4csc(N5CCCC5)n4)ccc3n2)cc1 [Example 170, 4-{[6-(2-Pyrrolidin-1-yl-thiazol-4-yl)-4-(2,2,2-trifluoro-ethylamino)-pyrido[3,2-d]pyrimidin-2-ylamino]-methyl}-benzenesulfonamide]
[1]
  EC50: < 0.1 µM
[2]
  CC50 at 3 days: < 5 µM

## NS(=O)(=O)c1ccc(CNc2nc(NCC(F)(F)F)c3nc(-c4ccc(O)cc4)ccc3n2)cc1 [Example 171, 4-{[6-(4-Hydroxy-phenyl)-4-(2,2,2-trifluoro-ethylamino)-pyrido[3,2-d]pyrimidin-2-ylamino]-methyl}-benzenesulfonamide]
[1]
  EC50: < 0.1 µM
[2]
  CC50 at 3 days: > 25 µM

## COc1cc(-c2ccc3nc(NCc4ccc(S(N)(=O)=O)cc4)nc(NCC(F)(F)F)c3n2)ccn1 [Example 172, 4-{[6-(2-Methoxy-pyridin-4-yl)-4-(2,2,2-trifluoro-ethylamino)-pyrido[3,2-d]pyrimidin-2-ylamino]-methyl}-benzenesulfonamide]
[1]
  EC50: < 0.1 µM
[2]
  CC50 at 3 days: 5 to 25 µM

## N#Cc1cc(-c2ccc3nc(NCc4ccc(S(N)(=O)=O)cc4)nc(NCC(F)(F)F)c3n2)ccn1 [Example 173, 4-{[6-(2-Cyano-pyridin-4-yl)-4-(2,2,2-trifluoro-ethylamino)-pyrido[3,2-d]pyrimidin-2-ylamino]-methyl}-benzenesulfonamide]
[1]
  EC50: < 0.1 µM
[2]
  CC50 at 3 days: > 25 µM

## Nc1ncc(-c2ccc3nc(NCc4ccc(S(N)(=O)=O)cc4)nc(NCC(F)(F)F)c3n2)cn1 [Example 174, 4-{[6-(2-Amino-pyrimidin-5-yl)-4-(2,2,2-trifluoro-ethylamino)-pyrido[3,2-d]pyrimidin-2-ylamino]-methyl}-benzenesulfonamide]
[1]
  EC50: < 0.1 µM
[2]
  CC50 at 3 days: > 25 µM

## N#Cc1cccc(-c2ccc3nc(NCc4ccc(S(N)(=O)=O)cc4)nc(NCC(F)(F)F)c3n2)c1 [Example 175, 4-{[6-(3-Cyano-phenyl)-4-(2,2,2-trifluoro-ethylamino)-pyrido[3,2-d]pyrimidin-2-ylamino]-methyl}-benzenesulfonamide]
[1]
  EC50: < 0.1 µM
[2]
  CC50 at 3 days: > 25 µM

## CN1CC[C@H](C(=O)Nc2ccc(-c3ccc4nc(NCc5ccc(S(N)(=O)=O)cc5)nc(OC5CC5)c4n3)cc2)C1 [Example 176, 1-Methyl-pyrrolidine-3-carboxylic acid {4-[4-cyclopropoxy-2-(4-sulfamoyl-benzylamino)-pyrido[3,2-d]pyrimidin-6-yl]-phenyl}-amide]
[1]
  EC50: < 0.1 µM
[2]
  CC50 at 3 days: > 25 µM

## CN1CC[C@H](C(=O)Nc2ccc(-c3ccc4nc(NCc5ccc(S(N)(=O)=O)cc5)nc(NCC(F)(F)F)c4n3)cc2F)C1 [Example 177, 1-Methyl-pyrrolidine-3-carboxylic acid {2-fluoro-4-[2-(4-sulfamoyl-benzylamino)-4-(2,2,2-trifluoro-ethylamino)-pyrido[3,2-d]pyrimidin-6-yl]-phenyl}-amide]
[1]
  EC50: < 0.1 µM
[2]
  CC50 at 3 days: 5 to 25 µM

## CN1CC[C@H](C(=O)Nc2ccc(-c3ccc4nc(NCc5ccc(S(N)(=O)=O)cc5)nc(NCC(F)(F)F)c4n3)cc2)C1 [Example 178, 1-Methyl-pyrrolidine-3-carboxylic acid {4-[2-(4-sulfamoyl-benzylamino)-4-(2,2,2-trifluoro-ethylamino)-pyrido[3,2-d]pyrimidin-6-yl]-phenyl}-amide]
[1]
  EC50: < 0.1 µM
[2]
  CC50 at 3 days: 5 to 25 µM

## NS(=O)(=O)c1ccc(CNc2nc(NCC(F)(F)F)c3nc(-c4ccc(N5CCC(O)C5=O)cc4)ccc3n2)cc1 (stereo not shown) [Example 179, 4-{[6-[4-(3-Hydroxy-2-oxo-pyrrolidin-1-yl)-phenyl]-4-(2,2,2-trifluoro-ethylamino)-pyrido[3,2-d]pyrimidin-2-ylamino]-methyl}-benzenesulfonamide]
[1]
  EC50: < 0.1 µM
[2]
  CC50 at 3 days: > 25 µM

## NS(=O)(=O)c1ccc(CNc2nc(NCC(F)(F)F)c3nc(-c4ccc(NC(=O)C5(O)CC5)cc4)ccc3n2)cc1 [Example 180, 1-Hydroxy-cyclopropanecarboxylic acid {4-[2-(4-sulfamoyl-benzylamino)-4-(2,2,2-trifluoro-ethylamino)-pyrido[3,2-d]pyrimidin-6-yl]-phenyl}-amide]
[1]
  EC50: < 0.1 µM
[2]
  CC50 at 3 days: > 25 µM

## NS(=O)(=O)c1ccc(CNc2nc(NC3CC3)c3nc(-c4ccc(NC(=O)C5(O)CC5)cc4)ccc3n2)cc1 [Example 181, 1-Hydroxy-cyclopropanecarboxylic acid {4-[4-cyclopropylamino-2-(4-sulfamoyl-benzylamino)-pyrido[3,2-d]pyrimidin-6-yl]-phenyl}-amide]
[1]
  EC50: < 0.1 µM
[2]
  CC50 at 3 days: < 5 µM
